Reference: patent publication US20250213528A1, “5-METHOXY-N,N-[…][…] THE TREATMENT OF ANXIETY” (GH RESEARCH IRELAND LIMITED, priority 2022, published 2025)

How the values were obtained:
[1] = system: Salmonella typhimurium TA98, TA100, TA1535 and TA1537; assay: Bacterial mutation test, Salmonella typhimurium; format: cell-based; details: up to 5000 μg/plate, absence and presence of rat liver S-9
Description: (§1) These conditions included treatments at concentrations up to 5000 μg/plate (the maximum recommended concentration according to current regulatory guidelines), in the absence and in the presence of a rat liver metabolic activation system (S-9).

[2] = system: Escherichia coli WP2 uvrA pKM101; assay: Bacterial mutation test, Escherichia coli; format: cell-based; details: up to 5000 μg/plate, absence and presence of rat liver S-9
Description: as §1

[3] = Pharmacokinetics of 5-MeO-DMT and bufotenine after inhalation of 5-MeO-DMT; format: in vivo, human
[4] = system: patients with postpartum depression (PPD); assay: Clinical trial of inhaled 5-MeO-DMT in postpartum depression, one patient, IDR 6 mg then 12 mg; format: in vivo, human; details: n=1
Excerpt: Maternal functioning can, for instance, be assessed using the Barkin Index of Maternal Functioning (BIMF). This index was designed to measure functioning in the year after childbirth. The BIMF is a 20-item self-report measure of functioning. Each item is assigned a score between 0 and 6 so that the maximum total score is 120. The higher the score, the better maternal functioning is rated.
The single-arm, open-label clinical trial will involve 15 adult female patients with clinically diagnosed postpartum depression (PPD).
The second dose (12 mg) will only be administered if: • a. […] The 6 mg dose was safe and well-tolerated according to the investigator, • c. Any psychoactive effects (PsE) of the prior dose have subsided, and • d. Pre-dose vital parameters and forced expiratory volume in one second (FEV1) are in normal range, or if outside of the normal range, are not clinically significant according to the investigator. • 3. Similarly, a third dose (18 mg) will only be administered if: • a. […] The 12 mg dose was safe and well-tolerated according to the investigator, and • c. Any PsE of the prior dose have subsided, and • d. Pre-dose vital parameters and forced expiratory volume in one second (FEV1) are in normal range, or if outside of the normal range, are not clinically significant according to the investigator.
The patients will be assessed for a peak psychedelic experience (based on a patient-scored visual analogue scale, the PE scale), sedation, and other endpoints after dosing. Follow-up visits are planned for Day 1, and Day 7 after the dosing day.
The following criteria must be met by all patients considered for clinical trial participation: • 1. Is female and in the age range between 18 and 45 years (inclusive) at screening. • 2. Has a body mass index (BMI) in the range of 18.5 and 35 kg/m^2 (inclusive) at screening. • 3. Meets the trial criteria for PPD as assessed by a trial psychiatrist or registered psychologist: • a. Diagnosis of Major Depressive Disorder without psychotic features, confirmed by the Mini-International Neuropsychiatric Interview (MINI), with peri-partum onset that began no earlier than gestation and no later than the first 4 weeks postpartum. • b. Has a Montgomery-Åsberg Depression Rating Scale (MADRS) total score of equal to or greater than 28 at screening and pre-dose on Day 0. • 6. […] Patients must have a negative pregnancy test at screening and on the pre-test day (Day-1). • 5. Is willing to delay start of other antidepressant or anxiety medication until after the end of the trial at Day 7 and agrees to keep any psychotherapy unchanged during the trial.
A potential patient who meets any of the following key exclusion criteria will be excluded from participation in this trial: • 1. Has, based on history, psychiatric assessment, and evaluation of the MINI, a current or prior diagnosis of bipolar disorder, a manic or hypomanic episode, a psychotic disorder, Major Depressive Disorder (MDD) or other mood disorder with psychotic features, obsessive compulsive disorder, post-traumatic stress disorder (PTSD), autism spectrum disorder, borderline personality disorder, schizophrenia, delusional disorder, paranoid personality disorder, schizoaffective disorder, clinically significant intellectual disability, or any other psychiatric comorbidity that renders the patient unsuitable for the trial according to the investigator's judgment. • 2. Has one or more first or second degree relatives with a current or previously diagnosed bipolar disorder, psychotic disorder or other mood disorder (including MDD) with psychotic features. • 3.

**Q.** Which mutation induction [1] does the source give for COc1ccc2[nH]cc(CCN(C)C)c2c1 [5-MeO-DMT] here?
**A.** did not induce mutation

**Q.** What about the mutation induction [2] of the same compound?
**A.** did not induce mutation

**Q.** And the “detectability in the plasma” value ([3]; 3 hours after inhalation, whole dose range 6, 12, 18 mg)?
**A.** no longer detectable

**Q.** And the “pharmacokinetic measurements under uptitration” value ([3]; dosing schemes relying on uptitration, compared with single doses)?
**A.** Substantially similar results

**Q.** What about the “standard criteria for MADRS remission (MADRS total score equal or less than 10)” value [4] of the same compound?
**A.** fulfilled

**Q.** What about the “standard criteria for MADRS response (at least 50% improvement from baseline)” value [4] of the same compound?
**A.** fulfilled

**Q.** And the “time to clinical remission after administration” value [4]?
**A.** ≤ 2 h

**Q.** And the “durability of clinical response” value ([4]; 5-MeO-DMT given on one day only)?
**A.** sustained over the 7-day follow-up period

**Q.** And the “Total MADRS Improvement” value ([4]; 2 hr)?
**A.** 24

**Q.** What about the “BPRS Tension Improvement” value ([4]; Day 1) of the same compound?
**A.** 5

**Q.** And the “Total MADRS Improvement” value ([4]; Day 1)?
**A.** 29

**Q.** What about the “Total MADRS Improvement” value ([4]; Day 7) of the same compound?
**A.** 28

**Q.** What about the “BIMF item 19 As time goes on, I am getting better at taking care of my baby, score” value ([4]; Day 7, Day 0 score 0) of the same compound?
**A.** 1

**Q.** And the “BIMF item 13 I am taking good care of my physical needs, score” value ([4]; Day 7, Day 0 score 4)?
**A.** 5

**Q.** What about the “BIMF item 5 I am able to relax and enjoy time with my baby, score” value ([4]; Day 7, Day 0 score 5) of the same compound?
**A.** 6

**Q.** What about the “BIMF item 9 I am getting enough encouragement from other people, score” value ([4]; Day 7, Day 0 score 5) of the same compound?
**A.** 6

**Q.** What about the “BIMF item 10 I trust my own feelings (instincts) when it comes to taking care of my baby, score” value ([4]; Day 7, Day 0 score 5) of the same compound?
**A.** 6

**Q.** What about the “BIMF item 17 I am able to take care of my baby and my other responsibilities, score” value ([4]; Day 7, Day 0 score 5) of the same compound?
**A.** 5

**Q.** What about the “BIMF functional domain Adjustment score” value ([4]; Day 7, Day 0 score 5, maximum possible 12) of the same compound?
**A.** 6

**Q.** What about the “BIMF item 3 I am comfortable with the way I've chosen to feed my baby, score” value ([4]; Day 7, Day 0 score 6) of the same compound?
**A.** 6

**Q.** What about the “BIMF item 6 There are people in my life that I can trust to care for my baby when I need a break, score” value ([4]; Day 7, Day 0 score 6) of the same compound?
**A.** 6

**Q.** What about the “BIMF item 8 I am getting enough adult interaction, score” value ([4]; Day 7, Day 0 score 6) of the same compound?
**A.** 6

**Q.** What about the “BIMF item 12 I am taking good care of my baby's physical needs, score” value ([4]; Day 7, Day 0 score 6) of the same compound?
**A.** 6

**Q.** What about the “BIMF item 14 I make good decisions about my baby's health and well being, score” value ([4]; Day 7, Day 0 score 6) of the same compound?
**A.** 6

**Q.** And the “BIMF item 20 I am satisfied with the job I am doing as a new mother, score” value ([4]; Day 7, Day 0 score 6)?
**A.** 5

**Q.** What about the “BIMF functional domain Self Care score” value ([4]; Day 7, Day 0 score 9, maximum possible 18) of the same compound?
**A.** 13

**Q.** What about the “BIMF functional domain Infant Care score” value ([4]; Day 7, Day 0 score 12, maximum possible 12) of the same compound?
**A.** 12

**Q.** And the “BIMF functional domain Mother-Child Interaction score” value ([4]; Day 7, Day 0 score 15, maximum possible 18)?
**A.** 17

**Q.** And the “BIMF functional domain Social Support score” value ([4]; Day 7, Day 0 score 17, maximum possible 18)?
**A.** 18

**Q.** And the “BIMF functional domain Management score” value ([4]; Day 7, Day 0 score 28, maximum possible 36)?
**A.** 33

**Q.** What about the “BIMF functional domain Psychological Well-being score” value ([4]; Day 7, Day 0 score 44, maximum possible 60) of the same compound?
**A.** 53

**Q.** And the “BIMF total score improvement” value ([4]; Day 7, from 92 to 105 of possible 120)?
**A.** 14%

**Q.** What about the “BIMF TOTAL, Δ (Day 7)” value ([4]; Day 7 vs Day 0) of the same compound?
**A.** 13

**Q.** And the “BIMF item 3 I am comfortable with the way I've chosen to feed my baby, Δ (Day 7)” value ([4]; Day 7 vs Day 0)?
**A.** 0

**Q.** And the “BIMF item 5 I am able to relax and enjoy time with my baby, Δ (Day 7)” value ([4]; Day 7 vs Day 0)?
**A.** 1

**Q.** And the “BIMF item 6 There are people in my life that I can trust to care for my baby when I need a break, Δ (Day 7)” value ([4]; Day 7 vs Day 0)?
**A.** 0

**Q.** And the “BIMF item 8 I am getting enough adult interaction, Δ (Day 7)” value ([4]; Day 7 vs Day 0)?
**A.** 0

**Q.** What about the “BIMF item 9 I am getting enough encouragement from other people, Δ (Day 7)” value ([4]; Day 7 vs Day 0) of the same compound?
**A.** 1

**Q.** And the “BIMF item 10 I trust my own feelings (instincts) when it comes to taking care of my baby, Δ (Day 7)” value ([4]; Day 7 vs Day 0)?
**A.** 1

**Q.** What about the “BIMF item 11 I take a little time each week to do something for myself, Δ (Day 7)” value ([4]; Day 7 vs Day 0) of the same compound?
**A.** 1

**Q.** And the “BIMF item 12 I am taking good care of my baby's physical needs, Δ (Day 7)” value ([4]; Day 7 vs Day 0)?
**A.** 0

**Q.** And the “BIMF item 13 I am taking good care of my physical needs, Δ (Day 7)” value ([4]; Day 7 vs Day 0)?
**A.** 1

**Q.** And the “BIMF item 14 I make good decisions about my baby's health and well being, Δ (Day 7)” value ([4]; Day 7 vs Day 0)?
**A.** 0

**Q.** What about the “BIMF item 17 I am able to take care of my baby and my other responsibilities, Δ (Day 7)” value ([4]; Day 7 vs Day 0) of the same compound?
**A.** 0

**Q.** What about the “BIMF item 19 As time goes on, I am getting better at taking care of my baby, Δ (Day 7)” value ([4]; Day 7 vs Day 0) of the same compound?
**A.** 1

**Q.** What about the “BIMF item 20 I am satisfied with the job I am doing as a new mother, Δ (Day 7)” value ([4]; Day 7 vs Day 0) of the same compound?
**A.** −1

**Q.** What about the “BPRS Tension Improvement” value ([4]; Discharge) of the same compound?
**A.** 5

**Q.** What does the source list for CN(C)CCc1c[nH]c2ccc(O)cc12 [bufotenine]?
**A.** bufotenine blood concentration above LLOQ ([3]; after inhaled 5-MeO-DMT, LLOQ 25 pg/ml): Only in few samples; bufotenine blood concentrations under uptitration ([3]; subjects receiving an uptitration scheme included): Substantially similar observations
